We go through 14 compounds from patent US10322032B2, “Absorbent article comprising a fragrance or odor control composition” (The Procter & Gamble Company, priority 2013, dated 2019).

What is called logP is the decadic logarithm of the partition coefficient of the neutral form, usually between octanol and water. Low readings indicate a more hydrophilic compound, high ones a more lipophilic compound. As a reminder, the Log P is a log measure of how a compound divides between an organic and an aqueous phase.

Series [1] can be described thus: Kovats Retention Index by gas chromatography on DB-5 column against n-alkane standards. The series is classed as physicochemical. To be noted: GC, non-isothermal, C8-C22 n-alkane standards. The source says:
Kovats Index as it is known in the art, is defined as the selective retention of perfume raw materials (PRMs) onto chromatographic columns based on the retention volume of the substance with respect to that to a homologous series of n-alkane standards.
The Kovats Index in the present application can be experimentally derived using an Agilent Technologies 6890 gas chromatogram with Flame Ionization Detector (FID), or equivalent using a DB-5 (5% phenyl-methylpolysiloxane) column 30 m×0.25 mm i.d., with a 0.25 micron film thickness available from Agilent Technologies. Chromatographic conditions are 1 mL/min of helium carrier with constant flow programming, a temperature program of 50° C. to 300° C. at […] temperature 350° C., split injection at 300° C. Different chromatographic conditions may be required to achieve separation of the analytes of interest and can be readily adjusted by one skilled in the art. A linear alkane hydrocarbon standard mix (C8-C22 available from Aldrich Chemical Company or equivalent) is injected and the retention time for each component is recorded. The test sample (appropriately diluted in a suitable solvent) is injected under the same conditions, and the retention time for each component of interest is recorded. The Kovats Index under non-isothermal conditions is calculated for each component of interest in the test sample using the equation: KI=100n+100[(tsubstance−tn)/(tn+1−tn)] Where: • t=the uncorrected retention time of a peak • unknown=the peak of interest • n=the number of carbon atoms in the smaller alkane whose peak is adjacent to the peak of interest

A short description of series [2]: log P, n-octanol/water partition coefficient (EPA OPPTS 830.7550 shake flask method). It counts as physicochemical. The note with it: partitioning between octanol and water; for logP: n-octanol/water. From the text:
The use of log P values is well known in the chemical arts as representing the relative affinity that a material has for partitioning between octanol and water, so that a material that partitions more readily into octanol would tend to be more lipophillic and have a higher log P value than a material that partitions less readily into octanol. […] 1996, under the title “Product Properties Test Guidelines—OPPTS 830.7550 Partition Coefficient (n-Octanol/Water), Shake flask method.” which description is incorporated herein by reference. In following this EPA method in all instances where a recommended procedure is described (such as number of rotations of the shaker) the recommended procedure should be followed. For the analytical determination of the substance in the two phases a skilled person will know what analytical method to use, gas chromatography (GC) can be preferably used, while HPLC can be used in case GC is not suitable.

In the case of `CCCCCCOC(=O)c1ccccc1O` [n-Hexyl salicylate], the “KI (Kovats Retention Index)” value in series [1] worked out at 1765.1. Further, the logP in series [2] is 4.58.
With `O=C(Oc1ccccc1)c1ccccc1O` [Phenyl salicylate], in series [1], the “KI (Kovats Retention Index)” value is 1851.1. Moreover, the lipophilicity (logP) in series [2] was 3.49.
With `O=C1CCCCCCCCCCCCCCO1` [Exaltolide], in series [1], the “KI (Kovats Retention Index)” value was determined as 1882. The same compound displayed a logP in series [2] of 4.81.
For `CCC(=O)OCC(C)(C)OC(C)C1CCCC(C)(C)C1` (stereo not shown) [Helvetolide], the “KI (Kovats Retention Index)” value in series [1] is listed as 1773. Also, the “Log P” value in series [2] stood at 5.56.
Regarding `O=C(OC1CCCCC1)c1ccccc1O` [Cyclohexyl salicylate], the “KI (Kovats Retention Index)” value in series [1] was determined as 1821. For the same compound, in series [2], the logP came to 4.15.
Regarding `O=C(OCc1ccccc1)c1ccccc1O` [Benzyl salicylate], in series [1], the “KI (Kovats Retention Index)” value was 1920.3. This compound also displayed a logP in series [2] of 3.56.
`O=C1CCCCC/C=C/CCCCCCCCO1` [trans-ambrettolide]: in series [1], the “KI (Kovats Retention Index)” value came out at 1961.1. Moreover, in series [2], the “Log P” value is 4.64.
Turning to `CC(C)CCOC(=O)c1ccccc1O` [Isoamyl salicylate], in series [1], the “KI (Kovats Retention Index)” value came out at 1616.4. For the same compound, the logP in series [2] was 3.74.
In the same order, the values of `CC(C)=CCOC(=O)c1ccccc1O` [Prenyl salicylate] are 1655.3 and 3.05.
For the compound `CCCCCOC(=O)c1ccccc1O` [amyl salicylate], in series [1], the “KI (Kovats Retention Index)” value amounted to 1668.8. In series [2], the logP is 4.09.
For `Cc1ccc(OC(=O)c2ccccc2O)cc1` [p-Cresyl salicylate], in that order: 1944.5 and 4.06.
Regarding `CCCCC(CC)COC(=O)c1ccccc1O` (stereo not shown) [2-Ethylhexyl salicylate], in series [1], the “KI (Kovats Retention Index)” value is on record as 1889.5. In series [2], this compound registered a logP of 4.92.
For the compound `CCCCOC(=O)c1ccccc1O` [Butyl salicylate], the “KI (Kovats Retention Index)” value in series [1] is given as 1572.9. This compound also yielded a logP in series [2] of 3.58.
As to `O=C1CCCCCCCCC/C=C/CCCO1` [Habanolide], the “KI (Kovats Retention Index)” value in series [1] came out at 1862.9. Besides, the “Log P” value in series [2] was 4.32.
